Data from patent publication US20240218022A1, “ANTI-VISTA MACROCYCLIC PEPTIDES AND COMPOSITIONS” (BRISTOL-MYERS SQUIBB COMPANY, priority 2022, published 2024).
pIC50: −log10 of the molar value. Positions of bridges follow the written chain, without caps; N, C: chain ends. Non-standard residues stand in square brackets, D forms with d. Residues, ends and D or L forms follow the SMILES beside them. ξ: configuration not given here. Phe(4-CONH2) = NC(=O)c1ccc(C[C@H](N)C(=O)O)cc1; Phe(2,4-F2) = N[C@@H](Cc1ccc(F)cc1F)C(=O)O; Phe(3-CN) = N#Cc1cccc(C[C@H](N)C(=O)O)c1; Phe(3-Me) = Cc1cccc(C[C@H](N)C(=O)O)c1; Phe(4-Me) = Cc1ccc(C[C@H](N)C(=O)O)cc1; Ahp(2) = CCCCC[C@H](N)C(=O)O; NMeNle = CCCC[C@H](NC)C(=O)O; Tle = CC(C)(C)[C@H](N)C(=O)O; NHexGly = CCCCCCNCC(=O)O; Nle = CCCC[C@H](N)C(=O)O; ξS = NC(CO)C(=O)O

Molecular target: T1, mouse VISTA (mVISTA) (Mus musculus, UniProt Q9D659)
T1 construct: expressed in transfected cells; host or cells: Human embryonic kidney 293T cells
T1 sequence (Q9D659 33-308): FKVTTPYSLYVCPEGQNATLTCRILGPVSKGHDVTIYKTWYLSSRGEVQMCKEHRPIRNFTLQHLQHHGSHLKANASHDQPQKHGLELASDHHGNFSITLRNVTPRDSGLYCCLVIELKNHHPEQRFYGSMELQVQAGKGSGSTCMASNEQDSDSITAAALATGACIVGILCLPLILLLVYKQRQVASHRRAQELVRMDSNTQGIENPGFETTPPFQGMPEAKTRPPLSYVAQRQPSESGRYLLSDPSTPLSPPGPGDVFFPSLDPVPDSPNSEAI
Assay: Cell-Based Binding High-Content Assay For mVISTA (HC CBA mVISTA)
Conditions: read-out: HC CBA mVISTA IC50
How it was run: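 Competition of compound with a biotinylated peptide (final 2 nM, 30 min at RT) for binding to mVISTA on 293T cells, run under no-wash or wash (1 h compound preincubation then removal) formats. Readout by Alexa 647–streptavidin imaging on a high-content platform; four-parameter logistic fit gave IC50.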

Row | Structure (SMILES) | pIC50
1 | CCCCCCN1CC(=O)N[C@@H](Cc2ccc(O)cc2)C(=O)N[C@@H](CC(C)C)C(=O)N[C@@H](CC(N)=O)C(=O)N[C@@H](CCCNC(=N)N)C(=O)N(C)[C@@H](CCCC)C(=O)N[C@@H](CCCCC)C(=O)N2CCC[C@H]2C(=O)N[C@@H](C(C)(C)C)C(=O)N[C@@H](CO)C(=O)N[C@H](C(=O)NCC(N)=O)CSCC(=O)N[C@@H](Cc2cccc(C#N)c2)C(=O)N[C@@H](Cc2ccc(O)cc2)C(=O)N[C@@H](CC(=O)O)C1=O [compound 1210] ({CH2CO}-[Phe(3-CN)]YD[NHexGly]YLNR[NMeNle][Ahp(2)]P[Tle]SCG-NH2; thioether N-14) | 7.42
2 | CCCCCCN1CC(=O)N[C@@H](Cc2ccc(O)cc2)C(=O)N[C@@H](CCCC)C(=O)N[C@@H](CC(N)=O)C(=O)N[C@@H](CCCNC(=N)N)C(=O)N(C)[C@@H](CCCC)C(=O)N[C@@H](CCCCC)C(=O)N2CCC[C@H]2C(=O)N[C@@H](C(C)C)C(=O)N[C@@H](CC(=O)O)C(=O)N[C@H](C(=O)NCC(=O)O)CSCC(=O)N[C@@H](Cc2cccc(C)c2)C(=O)N[C@@H](Cc2ccc(O)cc2)C(=O)N[C@@H](CC(=O)O)C1=O [compound 1211] ({CH2CO}-[Phe(3-Me)]YD[NHexGly]Y[Nle]NR[NMeNle][Ahp(2)]PVDCG-OH; thioether N-14) | 7.66
3 | CCCCCCN1CC(=O)N[C@@H](Cc2ccc(O)cc2)C(=O)N[C@@H](CC(C)C)C(=O)N[C@@H](CC(N)=O)C(=O)N[C@@H](CCCNC(=N)N)C(=O)N(C)[C@@H](CCCC)C(=O)N[C@@H](CCCCC)C(=O)N2CCC[C@H]2C(=O)N[C@@H](C(C)(C)C)C(=O)N[C@@H](CO)C(=O)N[C@H](C(=O)NCC(N)=O)CSCC(=O)N[C@@H](Cc2ccc(C(N)=O)cc2)C(=O)N[C@@H](Cc2ccc(O)cc2)C(=O)N[C@@H](CC(=O)O)C1=O [compound 1212] ({CH2CO}-[Phe(4-CONH2)]YD[NHexGly]YLNR[NMeNle][Ahp(2)]P[Tle]SCG-NH2; thioether N-14) | 7.88
4 | CCCCCCN1CC(=O)N[C@@H](Cc2ccc(O)cc2)C(=O)N[C@@H](CC(C)C)C(=O)N[C@@H](CC(N)=O)C(=O)N[C@@H](CCCNC(=N)N)C(=O)N(C)[C@@H](CCCC)C(=O)N[C@@H](CCCCC)C(=O)N2CCC[C@H]2C(=O)N[C@@H](C(C)C)C(=O)N[C@@H](CO)C(=O)N[C@H](C(=O)NCC(N)=O)CSCC(=O)N[C@@H](Cc2ccc(C(N)=O)cc2)C(=O)N[C@@H](Cc2ccc(O)cc2)C(=O)N[C@@H](CC(=O)O)C1=O [compound 1213] ({CH2CO}-[Phe(4-CONH2)]YD[NHexGly]YLNR[NMeNle][Ahp(2)]PVSCG-NH2; thioether N-14) | 7.57
5 | CCCCCCN1CC(=O)N[C@@H](Cc2ccc(O)cc2)C(=O)N[C@@H](CC(C)C)C(=O)N[C@@H](CC(N)=O)C(=O)N[C@@H](CCCNC(=N)N)C(=O)N(C)[C@@H](CCCC)C(=O)N[C@@H](CCCCC)C(=O)N2CCC[C@H]2C(=O)N[C@@H](C(C)C)C(=O)N[C@@H](CO)C(=O)N[C@H](C(=O)NCC(N)=O)CSCC(=O)N[C@@H](Cc2ccc(C)cc2)C(=O)N[C@@H](Cc2ccc(O)cc2)C(=O)N[C@@H](CC(=O)O)C1=O [compound 1214] ({CH2CO}-[Phe(4-Me)]YD[NHexGly]YLNR[NMeNle][Ahp(2)]PVSCG-NH2; thioether N-14) | 7.63
6 | CCCCCCN1CC(=O)N[C@@H](Cc2ccc(O)cc2)C(=O)N[C@@H](CC(C)C)C(=O)N[C@@H](CC(N)=O)C(=O)N[C@@H](CCCNC(=N)N)C(=O)N(C)[C@@H](CCCC)C(=O)N[C@@H](CCCCC)C(=O)N2CCC[C@H]2C(=O)N[C@@H](C(C)(C)C)C(=O)N[C@@H](CO)C(=O)N[C@H](C(=O)NCC(N)=O)CSCC(=O)N[C@@H](Cc2ccc(C)cc2)C(=O)N[C@@H](Cc2ccc(O)cc2)C(=O)N[C@@H](CC(=O)O)C1=O [compound 1215] ({CH2CO}-[Phe(4-Me)]YD[NHexGly]YLNR[NMeNle][Ahp(2)]P[Tle]SCG-NH2; thioether N-14) | 7.78
7 | CCCCCCN1CC(=O)N[C@@H](Cc2ccc(O)cc2)C(=O)N[C@@H](CCCCC)C(=O)N[C@@H](CC(N)=O)C(=O)N[C@@H](CCCNC(=N)N)C(=O)N(C)[C@@H](CCCC)C(=O)N[C@@H](CCCCC)C(=O)N2CCC[C@H]2C(=O)N[C@@H](C(C)C)C(=O)N[C@@H](CC(=O)O)C(=O)N[C@H](C(=O)NCC(=O)O)CSCC(=O)N[C@@H](Cc2ccc(F)cc2F)C(=O)N[C@@H](Cc2ccc(F)cc2F)C(=O)N[C@@H](CC(=O)O)C1=O [compound 1216] ({CH2CO}-[Phe(2,4-F2)][Phe(2,4-F2)]D[NHexGly]Y[Ahp(2)]NR[NMeNle][Ahp(2)]PVDCG-OH; thioether N-14) | 7.89
8 | CCCCCCN1CC(=O)N[C@@H](Cc2ccc(O)cc2)C(=O)N[C@@H](CCCCC)C(=O)N[C@@H](CC(N)=O)C(=O)N[C@@H](CCCNC(=N)N)C(=O)N(C)[C@@H](CCCC)C(=O)N[C@@H](CCCCC)C(=O)N2CCC[C@H]2C(=O)N[C@@H](C(C)C)C(=O)N[C@@H](C(C)C)C(=O)N[C@H](C(=O)NCC(=O)O)CSCC(=O)N[C@@H](Cc2ccc(F)cc2F)C(=O)N[C@@H](Cc2ccc(F)cc2F)C(=O)N[C@@H](CC(=O)O)C1=O [compound 1217] ({CH2CO}-[Phe(2,4-F2)][Phe(2,4-F2)]D[NHexGly]Y[Ahp(2)]NR[NMeNle][Ahp(2)]PVVCG-OH; thioether N-14) | 7.79
9 | CCCCCCN1CC(=O)N[C@@H](Cc2ccc(O)cc2)C(=O)N[C@@H](CCCCC)C(=O)N[C@@H](CC(N)=O)C(=O)N[C@@H](CCCNC(=N)N)C(=O)N(C)[C@@H](CCCC)C(=O)N[C@@H](CCCCC)C(=O)N2CCC[C@H]2C(=O)N[C@@H](C(C)C)C(=O)N[C@@H](CC(=O)O)C(=O)N[C@H](C(=O)NC(CO)C(=O)O)CSCC(=O)N[C@@H](Cc2ccc(F)cc2F)C(=O)N[C@@H](Cc2ccc(F)cc2F)C(=O)N[C@@H](CC(=O)O)C1=O (some centres unmarked) [compound 1218] ({CH2CO}-[Phe(2,4-F2)][Phe(2,4-F2)]D[NHexGly]Y[Ahp(2)]NR[NMeNle][Ahp(2)]PVDC[ξS]-OH; thioether N-14) | 7.63
10 | CCCCCCN1CC(=O)N[C@@H](Cc2ccc(O)cc2)C(=O)N[C@@H](CCCCC)C(=O)N[C@@H](CC(N)=O)C(=O)N[C@@H](CCCNC(=N)N)C(=O)N(C)[C@@H](CCCC)C(=O)N[C@@H](CCCCC)C(=O)N2CCC[C@H]2C(=O)N[C@@H](C(C)C)C(=O)N[C@@H](C(C)C)C(=O)N[C@H](C(=O)NC(CO)C(=O)O)CSCC(=O)N[C@@H](Cc2ccc(F)cc2F)C(=O)N[C@@H](Cc2ccc(F)cc2F)C(=O)N[C@@H](CC(=O)O)C1=O (some centres unmarked) [compound 1219] ({CH2CO}-[Phe(2,4-F2)][Phe(2,4-F2)]D[NHexGly]Y[Ahp(2)]NR[NMeNle][Ahp(2)]PVVC[ξS]-OH; thioether N-14) | 7.47
11 | CCCCCCN1CC(=O)N[C@@H](Cc2ccc(O)cc2)C(=O)N[C@@H](CCCCC)C(=O)N[C@@H](CC(N)=O)C(=O)N[C@@H](CCCNC(=N)N)C(=O)N(C)[C@@H](CCCC)C(=O)N[C@@H](CCCCC)C(=O)N2CCC[C@H]2C(=O)N[C@@H](C(C)C)C(=O)N[C@@H](C(C)C)C(=O)N[C@H](C(=O)NCC(=O)O)CSCC(=O)N[C@@H](Cc2ccc(F)cc2F)C(=O)N[C@@H](Cc2c[nH]c3ccccc23)C(=O)N[C@@H](CC(=O)O)C1=O [compound 1220] ({CH2CO}-[Phe(2,4-F2)]WD[NHexGly]Y[Ahp(2)]NR[NMeNle][Ahp(2)]PVVCG-OH; thioether N-14) | 7.61
